This passage reports IC50 results from patent US8415469B2, “Compounds and methods for kinase modulation, and indications therefor” (Plexxikon Inc., priority 2005, dated 2013).

SMILES strings stand for the structures. A value given as a limit tells only on which side of the number the result lay.

What all share (format): biochemical
One assay addresses T1, FGFR1 (Homo sapiens, UniProt P11362, C488A/C584S).
T1 construct: P1351.pET N6 BI-PTP FGFR A458-E765-X C488A, C584S; made in house; host or cells: E. coli (PTP1B co-expressed)
The assay can be described thus: AlphaScreen kinase assay, FGFR1. Particulars: read-out: IC50, activity toward kinase FGFR.

The target of a further assay is T2, Ret (Homo sapiens, UniProt P07949).
T2 construct: P1378.pET-SF BI-PTP RET H661-R1012 HIS; made in house
T2 sequence (P07949 with tags, fused parts or gaps): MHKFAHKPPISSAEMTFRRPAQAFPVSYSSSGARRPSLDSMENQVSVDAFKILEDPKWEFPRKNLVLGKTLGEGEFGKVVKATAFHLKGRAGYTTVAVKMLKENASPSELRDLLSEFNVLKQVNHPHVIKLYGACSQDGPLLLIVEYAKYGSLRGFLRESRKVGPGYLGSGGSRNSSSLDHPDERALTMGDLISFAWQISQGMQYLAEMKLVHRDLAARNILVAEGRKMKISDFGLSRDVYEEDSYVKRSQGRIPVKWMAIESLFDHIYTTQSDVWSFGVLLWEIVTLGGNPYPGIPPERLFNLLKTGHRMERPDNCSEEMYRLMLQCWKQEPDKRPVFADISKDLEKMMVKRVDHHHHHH
Nature of the assay: AlphaScreen kinase assay, Ret. As to conditions: read-out: IC50, activity toward kinase Ret. In general terms: Alpha assays give light when donor and acceptor beads are brought close together.

The target in another assay is T3, Flt1 (Homo sapiens, UniProt P17948).
T3 construct: P1826.pETN6 BI-PTP FLT1 M799-D1165-X WT; His6 (N); made in house; host or cells: E. coli (PTP1B co-expressed)
T3 sequence (P17948 with tags, fused parts or gaps): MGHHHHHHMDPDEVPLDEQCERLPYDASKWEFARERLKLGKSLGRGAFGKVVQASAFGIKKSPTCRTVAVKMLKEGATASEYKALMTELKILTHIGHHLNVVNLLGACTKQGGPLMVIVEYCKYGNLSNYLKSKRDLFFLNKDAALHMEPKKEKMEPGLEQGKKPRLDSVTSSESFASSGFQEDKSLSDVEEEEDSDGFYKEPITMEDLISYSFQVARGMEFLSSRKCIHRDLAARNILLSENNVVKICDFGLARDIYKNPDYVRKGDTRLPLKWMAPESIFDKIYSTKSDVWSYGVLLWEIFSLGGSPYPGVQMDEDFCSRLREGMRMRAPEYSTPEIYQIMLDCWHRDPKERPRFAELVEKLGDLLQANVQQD
The assay can be described thus: AlphaScreen kinase assay, Flt1. As to conditions: read-out: IC50, activity toward kinase Flt1.

For another assay, the target named is T4, Kit (Homo sapiens, UniProt P10721).
T4 construct: P1332.N6 BI PTP KIT M552-K948-X COD; His6 (N); made in house; host or cells: E. coli (PTP1B co-expressed)
T4 sequence (P10721 with tags, fused parts or gaps): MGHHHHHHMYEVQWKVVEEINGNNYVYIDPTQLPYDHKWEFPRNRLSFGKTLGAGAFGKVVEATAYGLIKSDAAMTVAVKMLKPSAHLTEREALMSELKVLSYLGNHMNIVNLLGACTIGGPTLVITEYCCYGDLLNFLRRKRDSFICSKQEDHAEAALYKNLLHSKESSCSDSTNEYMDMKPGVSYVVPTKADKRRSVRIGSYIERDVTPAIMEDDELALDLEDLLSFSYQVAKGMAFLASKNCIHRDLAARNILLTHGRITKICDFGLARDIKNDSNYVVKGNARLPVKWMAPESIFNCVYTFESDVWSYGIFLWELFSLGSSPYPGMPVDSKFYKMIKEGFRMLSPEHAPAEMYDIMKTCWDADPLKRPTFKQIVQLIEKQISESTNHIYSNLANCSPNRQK
Nature of the assay: AlphaScreen kinase assay, Kit. As to conditions: read-out: IC50, activity toward kinase Kit.

The next assay concerns the target T5, B-Raf V600E (Homo sapiens, UniProt P15056, V600E).
T5 construct: P4254. pFastBacBD-CDC37 BRAF D437-K722-X, V600E; His6 with pFastBac HT leader (TEV site) (N); made in house; host or cells: Sf9 (baculovirus; chaperone CDC37 co-expressed)
Nature of the assay: AlphaScreen kinase assay, B-Raf V600E. Particulars: read-out: IC50, activity toward kinase B-Raf V600E.

For a further assay, the target named is T6, Fms (Homo sapiens, UniProt P07333).
T6 construct: purchased Upstate Biotechnology
T6 sequence (P07333 20-972): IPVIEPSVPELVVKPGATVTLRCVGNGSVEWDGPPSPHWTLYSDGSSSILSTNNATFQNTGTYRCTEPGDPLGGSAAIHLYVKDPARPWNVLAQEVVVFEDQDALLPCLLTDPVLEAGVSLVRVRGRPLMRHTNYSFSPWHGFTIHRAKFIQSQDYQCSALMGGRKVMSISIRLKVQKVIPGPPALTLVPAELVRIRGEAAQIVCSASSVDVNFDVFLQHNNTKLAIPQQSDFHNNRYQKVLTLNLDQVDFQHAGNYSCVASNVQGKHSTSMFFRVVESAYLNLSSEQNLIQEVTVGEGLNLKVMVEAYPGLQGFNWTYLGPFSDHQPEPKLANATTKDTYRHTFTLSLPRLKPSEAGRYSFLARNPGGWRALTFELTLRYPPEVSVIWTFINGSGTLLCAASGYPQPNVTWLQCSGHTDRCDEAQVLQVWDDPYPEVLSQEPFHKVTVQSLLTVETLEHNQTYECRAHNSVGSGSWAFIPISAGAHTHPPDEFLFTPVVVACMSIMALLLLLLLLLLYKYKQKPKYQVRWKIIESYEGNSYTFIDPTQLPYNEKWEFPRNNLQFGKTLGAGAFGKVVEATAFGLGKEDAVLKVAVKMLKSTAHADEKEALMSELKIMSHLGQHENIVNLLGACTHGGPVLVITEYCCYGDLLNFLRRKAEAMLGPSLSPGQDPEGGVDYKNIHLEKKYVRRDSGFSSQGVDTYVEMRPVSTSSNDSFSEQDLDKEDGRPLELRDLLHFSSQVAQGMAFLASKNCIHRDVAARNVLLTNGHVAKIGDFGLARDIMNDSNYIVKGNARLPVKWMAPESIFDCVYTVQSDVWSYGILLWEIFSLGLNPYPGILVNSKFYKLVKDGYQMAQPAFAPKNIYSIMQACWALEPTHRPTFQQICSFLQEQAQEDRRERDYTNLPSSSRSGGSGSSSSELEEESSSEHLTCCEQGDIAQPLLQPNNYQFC
Nature of the assay: AlphaScreen kinase assay, Fms. Particulars: read-out: IC50, activity toward kinase Fms.

T5 sequence (P15056 with tags, fused parts or gaps V600E): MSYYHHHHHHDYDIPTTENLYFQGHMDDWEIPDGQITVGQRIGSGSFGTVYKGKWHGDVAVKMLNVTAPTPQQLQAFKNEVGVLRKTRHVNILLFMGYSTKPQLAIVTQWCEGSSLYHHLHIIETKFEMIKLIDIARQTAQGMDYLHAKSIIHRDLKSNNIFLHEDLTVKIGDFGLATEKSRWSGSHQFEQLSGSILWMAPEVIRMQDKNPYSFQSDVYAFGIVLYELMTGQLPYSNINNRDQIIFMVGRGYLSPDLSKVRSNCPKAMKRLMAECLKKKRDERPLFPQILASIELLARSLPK
T1 sequence (P11362 458-765 C488A/C584S): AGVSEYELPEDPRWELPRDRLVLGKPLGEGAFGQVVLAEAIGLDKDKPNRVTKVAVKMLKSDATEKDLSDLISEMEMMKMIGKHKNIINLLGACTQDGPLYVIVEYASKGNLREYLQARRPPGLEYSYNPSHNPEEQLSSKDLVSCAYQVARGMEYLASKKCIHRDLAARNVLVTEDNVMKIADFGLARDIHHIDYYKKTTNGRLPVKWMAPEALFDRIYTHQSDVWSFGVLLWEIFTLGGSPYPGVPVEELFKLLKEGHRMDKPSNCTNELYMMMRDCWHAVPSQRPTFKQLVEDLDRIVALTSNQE

What is called IC50 is the midpoint of a concentration-inhibition curve. `NC(=O)c1ccc(-c2cnc3[nH]cc(C(=O)c4cccc(Cl)c4Cl)c3c2)cc1` [Compound P-0977]: the concentration for half-maximal inhibition (IC50) at FGFR1 and on Ret was at most 10 µM in each case.
On to `Fc1ccc(-c2c[nH]c3ncccc23)c(F)c1` [Compound P-0470], for which the IC50 at Flt1 was at most 10 µM.
`O=C(c1ccc(Cl)cc1)c1c[nH]c2ncc(Br)cc12` [Compound P-1033]: the IC50 on Kit and at Ret was at most 10 µM in each case.
With `CCCn1cccc1C(c1c[nH]c2ncc(-c3cccnc3)cc12)n1ccc2cc(-c3cccnc3)cnc21` (stereo not shown) [Compound P-1686], the IC50 at Flt1 is at most 10 µM.
On to `COc1cccc(C(=O)c2c[nH]c3ncc(Br)cc23)c1` [Compound P-0341], for which the IC50 on FGFR1, on Kit and at Ret was at most 10 µM each time.
On to `O=C(c1ccccc1F)c1c[nH]c2nccc(-c3ccc(Cl)cc3)c12` [Compound P-0472], for which the IC50 on B-Raf V600E and at Ret was at most 10 µM throughout.
With `COc1cccc(Cc2c[nH]c3nccc(-c4ccsc4)c23)n1` [Compound P-0810], the IC50 on B-Raf V600E, on Kit and on Ret was at most 10 µM in each case.
On to `COc1ccc(C(=O)c2c[nH]c3ncc(-c4cccs4)cc23)c(Cl)c1` [Compound P-0248], for which the IC50 at B-Raf V600E, on FGFR1, on Kit and at Ret was at most 10 µM throughout.
As to `Cc1cc(C(=O)c2c[nH]c3nccc(-c4ccc(C(N)=O)cc4)c23)no1` [Compound P-1007], the IC50 on B-Raf V600E and on Ret was at most 10 µM each time.
Turning to `O=C(c1cc(F)ccc1F)c1c[nH]c2ncc(-c3cccnc3)cc12` [Compound P-1111], the IC50 on FGFR1 and on Ret was at most 10 µM each time.
With `O=C(c1cccc(Cl)c1Cl)c1c[nH]c2nccc(Cl)c12` [Compound P-0232], the IC50 at FGFR1 and on Ret was at most 10 µM in each case.
On to `COc1cccc(C(=O)c2c[nH]c3nccc(-c4cccnc4)c23)c1` [Compound P-1117], for which the IC50 on B-Raf V600E and on Ret was at most 10 µM throughout.
With `c1cc(Cc2c[nH]c3ncc(-c4ccsc4)cc23)cc(OCCOC2CCCCO2)c1` (stereo not shown) [Compound P-0835], the IC50 at FGFR1, at Fms, on Kit and on Ret was at most 10 µM each time.
On to `O=C(c1ccccc1)c1c[nH]c2ncc(Br)cc12` [Compound P-0561], for which the IC50 on FGFR1, at Kit and on Ret was at most 10 µM in each case.
For `Clc1ccc(Cc2c[nH]c3ncc(-c4ccsc4)cc23)cn1` [Compound P-0385], the IC50 on FGFR1, on Kit and on Ret was at most 10 µM in each case.
Consider `O=C(c1cc(F)ccc1F)c1c[nH]c2nccc(-c3ccc(Cl)cc3)c12` [Compound P-0638], for which the IC50 at B-Raf V600E and on Ret was at most 10 µM in each case.
As to `COC(=O)Nc1cccc(C(=O)c2c[nH]c3ncc(Cl)cc23)c1` [Compound P-1619], the IC50 at Flt1 was at most 10 µM.
With `COc1ccc(-c2ccnc3[nH]cc(C(=O)c4cccc(O)c4)c23)cn1` [Compound P-0520], the IC50 at FGFR1 and on Ret was at most 10 µM each time.
`CC(=O)Nc1cccc(-c2ccnc3[nH]cc(C(=O)c4cc(C)on4)c23)c1` [Compound P-1085]: the IC50 on B-Raf V600E and on Ret was at most 10 µM in each case.
Consider `COc1cccc(C(=O)c2c[nH]c3nccc(-c4cccc(/C=C/C(=O)O)c4)c23)c1` [Compound P-1066], for which the IC50 at FGFR1 and at Ret was at most 10 µM throughout.
As for `O=C(c1cc(F)ccc1F)c1c[nH]c2ncc(-c3ccsc3)cc12` [Compound P-0699], the IC50 on FGFR1, on Kit and at Ret was at most 10 µM in each case.
As to `Cc1cc(C(=O)c2c[nH]c3nccc(-c4ccsc4)c23)no1` [Compound P-1026], the IC50 at B-Raf V600E and on Ret was at most 10 µM in each case.
Take `COc1cccc(C(=O)c2c[nH]c3nccc(-c4cccc(S(C)(=O)=O)c4)c23)c1` [Compound P-1125]: the half-inhibitory concentration (IC50) on FGFR1 and on Ret was at most 10 µM throughout.
Consider `Cc1cc(C(=O)c2c[nH]c3ncc(-c4cccc(NS(C)(=O)=O)c4)cc23)n(C)n1` [Compound P-0825], for which the IC50 on Kit and on Ret was at most 10 µM in each case.
As for `O=C(c1c(F)cccc1F)c1c[nH]c2nccc(-c3cc(F)cc(F)c3)c12` [Compound P-0344], the IC50 on B-Raf V600E, on FGFR1 and at Ret was at most 10 µM each time.
On to `Cc1cc(C(=O)c2c[nH]c3nccc(-c4cccnc4)c23)no1` [Compound P-1029], for which the IC50 at B-Raf V600E and at Ret was at most 10 µM each time.
With `COc1cccc(Cc2c[nH]c3ncc(-c4ccsc4)cc23)c1` [Compound P-0392], the IC50 at FGFR1, at Kit and at Ret was at most 10 µM each time.
As to `Cc1ccc(F)cc1C(=O)c1c[nH]c2nccc(-c3ccc(C(N)=O)cc3)c12` [Compound P-1024], the IC50 on B-Raf V600E and on Ret was at most 10 µM throughout.
Turning to `COc1ccc(-c2ccnc3[nH]cc(C(=O)c4cc(C)on4)c23)cn1` [Compound P-1113], the IC50 at B-Raf V600E and on Ret was at most 10 µM each time.
On to `COc1cccc(C(=O)c2c[nH]c3nccc(-c4cccc(NC(C)=O)c4)c23)c1` [Compound P-0363], for which the 50% inhibitory concentration (IC50) at FGFR1 and on Ret was at most 10 µM each time.
Take `Cc1cc(C(=O)c2c[nH]c3nccc(-c4cccc(S(C)(=O)=O)c4)c23)no1` [Compound P-1031]: the IC50 on B-Raf V600E and on Ret was at most 10 µM each time.
In the case of `Cc1cc(C(=O)c2c[nH]c3ncc(-c4cccnc4)cc23)no1` [Compound P-0826], the concentration for half-maximal inhibition (IC50) on FGFR1 and at Ret was at most 10 µM each time.
`O=C(c1ccccc1)c1c[nH]c2nccc([N+](=O)[O-])c12` [Compound P-0246]: the IC50 at B-Raf V600E, on FGFR1 and at Ret was at most 10 µM in each case.
As to `O=C(c1ccccc1)c1c[nH]c2ncc(Br)c([N+](=O)[O-])c12` [Compound P-0736], the IC50 at Kit and on Ret was at most 10 µM throughout.
Consider `O=C(c1cc(Cl)ccc1F)c1c[nH]c2ncc(-c3cccs3)cc12` [Compound P-0644], for which the half-inhibitory concentration (IC50) on Kit and at Ret was at most 10 µM each time.
In the case of `COc1cccc(C(=O)c2c[nH]c3nccc(-c4ccsc4)c23)c1` [Compound P-1188], the half-maximal inhibitory concentration (IC50) on FGFR1 and at Ret was at most 10 µM each time.
As to `CS(=O)(=O)Nc1cccc(-c2ccnc3[nH]cc(C(=O)c4cccc(Cl)c4Cl)c23)c1` [Compound P-0231], the IC50 at B-Raf V600E and at Ret was at most 10 µM each time.
For the compound `O=C(c1cccc(Cl)c1Cl)c1c[nH]c2nccc(-c3ccsc3)c12` [Compound P-0347], the IC50 at B-Raf V600E and on Ret was at most 10 µM each time.
As for `Cc1ccc(F)cc1C(=O)c1c[nH]c2nccc(-c3cccc(C(N)=O)c3)c12` [Compound P-0976], the IC50 at B-Raf V600E, on FGFR1 and at Ret was at most 10 µM throughout.
Consider `Cc1cc(C(=O)c2c[nH]c3nccc(-c4cccc(NS(C)(=O)=O)c4)c23)no1` [Compound P-1025], for which the IC50 at B-Raf V600E and on Ret was at most 10 µM throughout.
For the compound `Cc1cc(C(=O)c2c[nH]c3nccc(-c4ccc(Cl)cc4)c23)n(C)n1` [Compound P-1196], the IC50 at Ret was at most 10 µM.
Still for that read-out and setting: the result for `Cc1ccc(F)cc1C(=O)c1c[nH]c2nccc(-c3ccsc3)c12` [Compound P-1189] reads at most 10 µM; that for `Cc1ccccc1C(=O)c1c[nH]c2nccc(-c3cccc(S(C)(=O)=O)c3)c12` [Compound P-1200], at most 10 µM.
For the compound `Cc1ccc(F)cc1C(=O)c1c[nH]c2nccc(-c3ccc(Cl)cc3)c12` [Compound P-1133], the IC50 at Ret is at most 10 µM.
